# Experiments:
# [1] = tested on: Ramos, a B-cell lymphoma, cultured as 3-D spheroids; assay: Cell viability IC50 in 3-D spheroids; type: cell-based, human
# Excerpt: (§1) Exemplary Embodiments are generally performed as follows, unless otherwise noted. Simvastatin is purchased from Ark Pharm, Inc. (Arlington Heights, IL). Cisplatin (CIS) is purchased from MedKoo Biosciences, Inc. (Chapel Hill, NC). Dihydroartemisinin is purchased from TCI America (Portland, OR). All other chemicals and reagents are purchased from standard sources such as Sigma-Aldrich and/or VWR and are of highest quality available. Puromycin dihydrochloride was purchased from Alfa Aesar (Tewksbury, MA). Deionized water ([…]) used for making solutions is obtained from Milli-Q Direct Ultrapure Water System from Millipore (Billerica, MA, USA). All intermediates are characterized by 1H NMR and mass analysis and the purity of compounds are analyzed by HPLC. 1H NMR data are collected on Bruker 400 MHz spectrometers using standard parameters; chemical shifts are reported in ppm (δ) in reference to residual non-deuterated solvent. ESI mass spectroscopy analysis is performed using a Thermo Fisher LTQ Orbitrap Elite system. IC50 is the half maximal inhibitory concentration and determined is determined by crystal violet assay unless otherwise noted.
# Cancer cells were Ramos, a B-cell lymphoma, cultured as 3-D spheroids, cultured according to their standard culturing conditions.
# [2] = tested on: 22Rv1 tumors; assay: Prostate tumor xenograft growth; type: in vivo, mice; settings: IP twice per week, 37 days; SIM 1.1 mg/kg, DZ-SIM 5.5 mg/kg, DT 8 mg/kg
# Method: A human prostate tumor xenograft model, 22Rv1 in immune compromised mice, is employed as follows. 1×10^6 freshly harvested cells of a cultured human prostate carcinoma cell line, 22Rv1, are inoculated s.q. in mice. Mice bearing 22Rv1 tumors (10 tumors/group) are randomized into 7 groups on day-1, and administered drugs by IP (intraperitoneally) at the next day (day-2), and subsequently twice per week, using the following drugs and dosages: a control/vehicle (V, i.e. no drug), DZ (5 μM or 3.9 mg/kg, calculated based on the body weight of mice which averaged 20 grams), SIM (5 μM or 1.1 mg/kg), DZ-SIM (5 μM or 5.5 mg/kg), docetaxel (DT, 8 mg/kg), SIM+DT (drug doses as indicated), and DZ-SIM+DT (drug doses as indicated). Administration is continued for a total of 37 days, and tumor volumes are measured at the indicated times (see FIG. 4). […] Thus therapeutically resistant prostate tumors can be rendered sensitive by DZ-SIM but not SIM.
# [3] = tested on: MIAPaCa II; assay: Cancer cell growth IC50 / sensitization (crystal violet); type: cell-based; settings: Example 13, 72 h
# Excerpt: as §1
# (§2) The crystal violet assay is performed as follows, unless otherwise noted. Cell lines are supplemented with RPMI 1640 medium, 10% fetal bovine serum, 1% PenStrep, and placed in a humidified atmosphere containing 5% CO2 at 37° C. 5,000 cells/well renal cancer cells and 10,000 cells/well lymphoma cells are seeded in 96 well plates in 100 microliter medium/per well for 24 h. […] Renal cancer cells are fixed with 3.7% paraformaldehyde for 15 minutes and are stained with Crystal violet solution (0.5% in 25% methanol) for 30 minutes. After rinsing with water cell layers are dried and decolorized with Sorenson citrate with shaking for 20 minutes. Light absorption of the extracted supernatant is read at 595 nm. Lymphoma cell growth was evaluated using MTT and cells are incubated for 4 hours. 100 microliters of isopropanol is added, and the extracted supernatant fraction is read at absorption maximum of 595 nm. […]
# [4] = tested on: CTC 752-S-1; assay: Circulating tumor cell growth IC50 / sensitization; type: cell-based, human; settings: CTC-752-S-1 human pancreatic cancer cells; 72 hours
# Excerpt: as §1
# (§3) Standard cell culture conditions typically are RPMI 1640 medium, 10% fetal bovine serum, 1% PenStrep, and are performed in a humidified atmosphere containing 5% CO2 at 37° C. Generally, 5,000 cells/well-10,000 cells/well are seeded in 96 well plates in 100 microliter medium/per well for 24 h, or as described in Example 16, unless otherwise noted. Certain cells require specialized media, growth factors, antibiotics, or culture condition adjustments, as will be apparent to a person of ordinary skill in the art.
# Pancreatic cancer cells are cultured for 72 hours in vitro and exposed to the conventional chemotherapeutic drugs Gemcitabine (GEM) and Paclitaxel (PAC), known to inhibit pancreatic cancer growth in patients. GEM (or PAC) alone are compared to a combination with SIM, or a combination with DZ-SIM. […] Representative results are illustrated in the graphs in FIG. 3.
# Cells are cultured according to their standard culturing conditions, and IC50s are determined as described herein-above.
# Representative results of the determined IC50s are shown in the table below for the indicated cancer cells cultured in vitro, including CTCs (C752-S-1), B-Cell Lymphoma (Namalwa), prostate cancer cells (C4-2B), and renal cancer cells (Caki-1). The cells are cultured according to their standard culturing conditions, and IC50s are determined as described herein-above.
# [5] = tested on: Ramos; assay: Lymphoma cell growth IC50 (MTT); type: cell-based, human; settings: Example 13, 72 h, read-out: IC50
# Excerpt: as §1
# (§4) The crystal violet assay is performed as follows, unless otherwise noted. Cell lines are supplemented with RPMI 1640 medium, 10% fetal bovine serum, 1% PenStrep, and placed in a humidified atmosphere containing 5% CO2 at 37° C. 5,000 cells/well renal cancer cells and 10,000 cells/well lymphoma cells are seeded in 96 well plates in 100 microliter medium/per well for 24 h. […] Renal cancer cells are fixed with 3.7% paraformaldehyde for 15 minutes and are stained with Crystal violet solution (0.5% in 25% methanol) for 30 minutes. After rinsing with water cell layers are dried and decolorized with Sorenson citrate with shaking for 20 minutes. Light absorption of the extracted supernatant is read at 595 nm. Lymphoma cell growth was evaluated using MTT and cells are incubated for 4 hours. 100 microliters of isopropanol is added, and the extracted supernatant fraction is read at absorption maximum of 595 nm.
# as §3
# (§5) Cell lines are cultured as follows. […] 5,000 cells/well renal cancer cells and 10,000 cells/well lymphoma cells are seeded in 96 well plates in 100 microliter medium/per well for 24 h. […] Renal cancer cells are fixed with 3.7% paraformaldehyde for 15 minutes and are stained with Crystal violet solution (0.5% in 25% methanol) for 30 minutes. After rinsing with water cell layers are dried and decolorized with Sorenson citrate with shaking for 20 minutes. Light absorption of the extracted supernatant is read at 595 nm. Lymphoma cell growth is evaluated using MTT and cells are incubated for 4 hours. 100 microliters of isopropanol is added, and the extracted supernatant fraction is read at absorption maximum of 595 nm.
# [6] = tested on: Daudi; assay: Lymphoma cell growth IC50 (MTT); type: cell-based, human; settings: Example 13, 72 h, read-out: IC50
# Excerpt: as §1, §4, §3, §5
# [7] = tested on: Raji; assay: Lymphoma cell growth IC50 (MTT); type: cell-based, human; settings: Example 13, 72 h, read-out: IC50
# Excerpt: as §1, §4, §3, §5
# [8] = tested on: Namalwa; assay: Lymphoma cell growth IC50 (MTT); type: cell-based, human; settings: Example 13, 72 h, read-out: IC50
# Excerpt: as §1, §4, §3, §5
# [9] = tested on: NKPC-961; assay: Sensitization of pancreatic cancer cells to CIS and GEM; type: cell-based, mouse
# Excerpt: GEM (or PAC) alone are compared to a combination with SIM, or a combination with DZ-SIM.
# [10] = tested on: 22Rv1; assay: Cancer cell growth IC50 (crystal violet); type: cell-based, human; settings: Example 13, 72 h
# Excerpt: as §1, §2
# [11] = tested on: U87; assay: Cancer cell growth IC50 (crystal violet); type: cell-based; settings: Example 13, 72 h
# Excerpt: as §1, §4, §3
# [12] = tested on: C4-2B; assay: Cancer cell growth IC50 (crystal violet); type: cell-based; settings: Example 13, 72 h
# Excerpt: as §1, §4, §3
# [13] = tested on: PC3; assay: Cancer cell growth IC50 (crystal violet); type: cell-based; settings: Example 13, 72 h
# Excerpt: as §1, §4, §3
# [14] = tested on: LNCaP; assay: Cancer cell growth IC50 (crystal violet); type: cell-based; settings: Example 13, 72 h
# Excerpt: as §1, §4, §3
# [15] = tested on: PC3M; assay: Cancer cell growth IC50 (crystal violet); type: cell-based; settings: Example 13, 72 h
# Excerpt: as §1, §4, §3
# [16] = tested on: C4-2; assay: Cancer cell growth IC50 (crystal violet); type: cell-based; settings: Example 13; C42; 72 h
# Excerpt: as §1, §4, §3
# [17] = tested on: ARCaP-E; assay: Cancer cell growth IC50 (crystal violet); type: cell-based; settings: Example 13, 72 h
# Excerpt: as §1, §4, §3
# [18] = tested on: MCF-7; assay: Cancer cell growth IC50 (crystal violet); type: cell-based; settings: Example 13, 72 h
# Excerpt: as §1, §4, §3
# [19] = tested on: A549 or A549/DDP cells; assay: CIS IC50 with constant DZ-SIM ester or amide, Crystal Violet assay; type: cell-based, human; settings: 72 h
# Method: Cell proliferation is determined by a Crystal Violet assay. The data represent the mean+/−SEM for two assays done in quadruplicate.
# [20] = tested on: mouse kidney; assay: Kidney histopathology (hematoxylin and eosin); type: in vivo; settings: normal kidney of mice implanted with kidney tumors
# [21] = tested on: PARP, Caspase 9 and p53 in Caki-1 cells; assay: Western blot of apoptosis related proteins; type: cell-based, human
# Excerpt: Results also confirm elevated expression of p53 (a tumor suppressor) in human kidney cancer Caki cells (see panel D in FIG. 9).
# [22] = tested on: caspase-3 and-7 activities in Caki-1 cells; assay: CaspaseGlo 3/7 luminescent apoptosis assay; type: cell-based, human; settings: 24 hours after treatment
# Excerpt: Caspase-Glo® 3/7 Assay (Promega) is a homogeneous, luminescent assay that measures caspase-3 and-7 activities that provides a luminogenic caspase-3/7 substrate, which contains the tetrapeptide sequence DEVD, in a reagent optimized for caspase activity, luciferase activity and cell lysis. A single Caspase-Glo 3/7 Reagent in an “add-mix measure” format results in cell lysis, followed by caspase cleavage of the substrate and generation of a “glow-type” luminescent signal, produced by luciferase. Luminescence is proportional to the amount of caspase activity present. Caspase-Glo® 3/7 Reagent is prepared, mixed and the reagent and the 96-well plate containing cells are equilibrated to room temperature. […] The plate is incubated at room temperature for 30 minutes to 3 hours, depending upon the cell culture system (optimal incubation period determined empirically). Luminescence of each sample is measured in a plate-reading luminometer. […]
# B-cell lymphoma cells (Namalwa) are cultured in RPMI 1640, 10% fetal bovine serum, 1% PenStrep, and placed in a humidified atmosphere containing 5% CO2 at 37° C. […] 100 microliters of Caspase-Glo 3/7 assay is added and luminescence is then read. […] 100 microliters of Caspase-Glo 3/7 assay is added and luminescence is then read.
# [23] = tested on: Namalwa human lymphoma xenograft tumors; assay: Immunohistochemical staining of xenograft tumors; type: in vivo; settings: Namalwa xenograft tumors of mice
# Excerpt: (§6) These normal kidney and liver tissues were obtained from mice harbored with human Burkitt's lymphoma.
# [24] = tested on: Caki-1; assay: Renal cancer cell growth IC50 (crystal violet); type: cell-based, human; settings: Example 11
# Excerpt: as §1, §4, §3, §5
# [25] = tested on: normal mouse kidney and liver; assay: Immunohistochemical staining of normal kidney and liver; type: in vivo; settings: mice harbored with human Burkitt's lymphoma
# Excerpt: as §6
smiles,measurement,setting,value
CCC(C)(C)C(=O)O[C@H]1C[C@@H](C)C=C2C=C[C@H](C)[C@H](CC[C@@H]3C[C@@H](OC(=O)CCCCCN4/C(=C/C=C5\CCCC(/C=C/C6=[N+](CCCCS(=O)(=O)[O-])c7ccccc7C6(C)C)=C5Cl)C(C)(C)c5ccccc54)CC(=O)O3)[C@H]21 [DZ-SIM ester],IC50,"[1]; Homo sapiens, Ramos 3-D spheroids, 72 h, single agent",2.74 µM
same,Increase of CIS cytotoxicity,"[1]; Ramos, 2 μM DZ-SIM ester",over 190 fold
same,Potency relative to SIM,"[1]; Ramos, 72 h",5 fold
same,Growth of 22Rv1 tumors in vivo (tumor volume),[2],inhibited the growth of tumors in vivo
same,IC50,[3],2.12 µM
same,Sensitization to GEM or PAC,[4],more effective sensitizer to GEM or PAC than SIM
same,IC50,[5],2.74 µM
same,IC50,[6],5.61 µM
same,IC50,[7],8.8 µM
same,IC50,[8],7.15 µM
same,Sensitization to CIS and GEM,[9],about equally sensitize
same,IC50,[10],4.9 µM
same,IC50,[11],1.32 µM
same,IC50,[12],1.81 µM
same,IC50,[13],7.15 µM
same,IC50,[14],1.79 µM
same,IC50,[15],5.19 µM
same,IC50,[16],4.26 µM
same,IC50,[17],4.76 µM
same,IC50,[18],9.9 µM
same,Reduction of the IC50 of CIS by combination,[19],up to 200 fold
same,Sensitization of cancer cells to CIS,[19]; combination with CIS,sensitize cancer cells to CIS
CC1(C)C(/C=C/C2=C(Cl)C(=C/C=C3/N(CCCCCC(=O)[O][Pt]([NH2])([NH2])([OH])([Cl])[Cl])c4ccccc4C3(C)C)/CCC2)=[N+](CCCCS(=O)(=O)[O-])c2ccccc21 [DZ-CIS ester],"Kidney damage, histopathology",[20],protects from more severe kidney damage
same,"Expression of apoptosis related proteins PARP, Caspase 9 and p53",[21],induces elevation of apoptosis related proteins
same,"Level of apoptosis, CaspaseGlo 3/7",[22],increased apoptosis
same,Apoptosis in xenograft tumors (cleaved caspase-3 and M30),[23],increased apoptosis
same,Cell proliferation in xenograft tumors (Ki67),[23],decreased cell proliferation
same,In vitro growth of Caki-1,[24],inhibited by DZ-CIS
same,Apoptosis markers (cleaved caspas-3 and M30) / damage in normal kidney and liver,[25],protects normal kidney and liver from damage by CIS

# Reference: patent publication US12121510B2 (Cedars-Sinai Medical Center, priority 2016, dated 2024)
